Molecules are shown by their SMILES. Bounds are passed on as bounds.

The target of the first assay is T1, Zcchc11 enzyme (Homo sapiens, UniProt Q5TAX3).
T1 construct: made in house; host or cells: HEK293 cells (Zcchc11); E. coli Rosetta II (LIN28A)
T1 sequence (Q5TAX3 212-1420): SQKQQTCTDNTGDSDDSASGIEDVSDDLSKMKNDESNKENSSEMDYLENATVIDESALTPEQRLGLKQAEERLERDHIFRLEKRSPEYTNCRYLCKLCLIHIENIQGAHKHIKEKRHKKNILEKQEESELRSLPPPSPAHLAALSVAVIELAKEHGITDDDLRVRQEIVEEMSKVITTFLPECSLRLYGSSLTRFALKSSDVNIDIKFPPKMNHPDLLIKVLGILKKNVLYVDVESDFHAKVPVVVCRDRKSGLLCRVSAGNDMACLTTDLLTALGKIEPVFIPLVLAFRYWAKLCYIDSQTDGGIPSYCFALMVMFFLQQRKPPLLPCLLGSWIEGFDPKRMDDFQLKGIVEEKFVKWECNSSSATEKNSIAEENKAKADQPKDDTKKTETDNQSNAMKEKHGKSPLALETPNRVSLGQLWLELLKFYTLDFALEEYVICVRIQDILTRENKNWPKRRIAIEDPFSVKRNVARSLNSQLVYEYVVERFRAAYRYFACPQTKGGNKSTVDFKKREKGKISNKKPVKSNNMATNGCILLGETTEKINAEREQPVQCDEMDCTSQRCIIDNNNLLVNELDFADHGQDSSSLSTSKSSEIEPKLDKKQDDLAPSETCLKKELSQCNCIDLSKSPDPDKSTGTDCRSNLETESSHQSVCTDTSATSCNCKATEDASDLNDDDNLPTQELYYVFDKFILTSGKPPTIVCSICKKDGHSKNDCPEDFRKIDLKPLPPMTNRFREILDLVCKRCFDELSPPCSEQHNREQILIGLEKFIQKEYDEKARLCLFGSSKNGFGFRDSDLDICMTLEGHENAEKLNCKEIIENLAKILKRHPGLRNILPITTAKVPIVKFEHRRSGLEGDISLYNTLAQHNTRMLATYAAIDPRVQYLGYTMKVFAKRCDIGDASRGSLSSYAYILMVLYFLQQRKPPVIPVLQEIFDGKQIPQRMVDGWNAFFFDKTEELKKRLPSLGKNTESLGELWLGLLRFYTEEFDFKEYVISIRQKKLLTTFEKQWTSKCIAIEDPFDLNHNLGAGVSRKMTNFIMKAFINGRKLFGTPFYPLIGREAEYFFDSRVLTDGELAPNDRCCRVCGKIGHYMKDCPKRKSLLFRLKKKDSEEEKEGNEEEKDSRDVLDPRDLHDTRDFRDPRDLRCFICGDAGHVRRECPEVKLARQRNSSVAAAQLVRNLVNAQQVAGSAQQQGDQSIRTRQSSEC
Kind of assay: TUTase assay (Zcchc11 assay, Lin28a-dependent polyuridylation of pre-let-7). It is filed as biochemical. Particulars: LIN28A 10 nM, Zcchc11 0.2 nM, 5′-fluorescein pre-let-7 miRNA 2 nM, UTP 5 uM, room temperature, 30 minutes pre-incubation; read-out: Potency Lin28a-dep Z11 IC50. The protocol:
The purpose of the Zcchc11 assay is to determine compound potency against Zcchc11 enzyme through the measurement of IC50. Compound inhibition is measured as a function of polyuridine tails added to RNA substrates in the presence of active TUTase, UTP, and inhibitor. The Zcchc11 assay was done in a black, non-binding, 384 well plate (Corning #3575). All steps were performed at room temperature. For a typical assay, a 29 ul aliquot of assay buffer (50 mM HEPES pH 7.3, 150 mM KCl, 5 mM MgCl2, 10 mM DTT, 0.01% Triton X-100, 40 U/ml RNAsin (Promega)) containing LIN28A protein (final concentration: 10 nM) is added to each well. Next, 1 ul of compound in 100% DMSO is transferred from a compound dilution plate in which the compound is serially diluted. Next, 10 ul of a 5× mix of Zcchc11 and RNA substrate (5′-fluorescein labeled pre-let-7 miRNA (Dharmacon)) is added (final concentrations: 0.2 nM and 2 nM, respectively). The plate is placed on a plate shaker for 30 seconds to produce mixing, then incubated for 30 minutes. Next, 10 ul of a 5× mix of UTP and the quenching probe (3′-rhodamine labeled A20, polyadenosine nucleotide, (IDT)) is added (final concentrations: 5 uM and 4 nM, respectively). The plate is immediately placed in a Biotek Cytation 5 plate reader, and the time-dependent decrease in fluorescein fluorescence resulting from annealing of the A20 probe to polyuridine tails is recorded, using the kinetics mode of the reader. Reaction rates are obtained using linear fits to the early portion of progress curves. IC50 values are calculated using a four parameter fit with 100% enzyme activity determined from the DMSO control and 0% activity from control samples lacking UTP.
The LIN28A protein was expressed in and purified from E. coli, strain Rosetta II (Novagen). The entire coding sequence of the human, wild-type protein was cloned into expression vector pMAL (NEB), down-stream from a maltose-binding protein tag. The linker sequence contained a TEV protease cleavage site. The protein was purified from bacterial extracts using an MBP-Trap column (GE Healthcare Life Sciences), followed by tag cleavage and removal of the tag by ion-exchange chromatography. When necessary, contaminating bacterial RNA was removed using the procedure describe by Faehnle C R. et al. (2017) Multi-domain utilization by TUT4 and TUT7 in control of let-7 biogenesis. Nat Struct Mol Biol, 24:658-665.
The Zcchc11 protein was expressed in and purified from HEK293 cells. A truncated protein comprising residues 212-1420 of the human sequence was cloned into expression vector pTT5 (Viva Biotech) down-stream from a maltose-binding protein tag. The linker sequence contained a TEV protease cleavage site, and a FLAG tag was added to the carboxyl terminus of the protein. The protein was purified from cell extracts using an MBP-Trap column (GE Healthcare Life Sciences), followed by tag cleavage and further enrichment of the full length construct using anti-FLAG affinity media (Sigma Aldrich).
“+” represents an IC50 value that is greater than 50 μM; “++” represents an IC50 value that is greater than 10 μM and equal to or less than 50 μM; “+++” represents an IC50 value that is greater than 1 μM and equal to or less than 10 μM; and “++++” represents an IC50 value that is equal to or less than 1 μM.
As for `Cc1cc2c(=O)c(C(=O)O)cn(-c3ccc(N4CC(N(C)C)C4)nc3)c2cc1N1C(=O)CC1COc1ccccn1` (stereo not shown) [Example 52, 1-(6-(3-(dimethylamino)azetidin-1-yl)pyridin-3-yl)-6-methyl-4-oxo-7-(2-oxo-4-((pyridin-2-yloxy)methyl)azetidin-1-yl)-1,4-dihydroquinoline-3-carboxylic acid], the IC50 – broadly, the concentration that inhibits the measured activity by half – fell in the range of 10000 to 50000 nM.

The assay is the same for the next values; noted with them: Lin28a-dependent Zcchc11 (Z11) TUTase activity; read-out: Potency Lin28a-dep Z11 IC50.
For the compound `CN(C)C1CN(c2ccc(-n3cc(C(=O)O)c(=O)c4cc(Cl)c(N5C6CCC5(COc5ncccc5Cl)CC6)cc43)cn2)C1` [Compound 282, 6-chloro-7-(1-(((3-chloropyridin-2-yl)oxy)methyl)-7-azabicyclo [2.2.1]heptan-7-yl)-1-(6-(3-(dimethyl-amino)azetidin-1-yl)pyridin-3-yl)-4-oxo-1,4-dihydro-quinoline-3-carboxylic acid], the IC50 was ≤ 1000 nM.

As for `Cn1cc(-n2cc(C(=O)O)c(=O)c3cc(C#N)c(N4CCC[C@H]4COc4ncccc4Cl)nc32)cn1` [Compound 281, (S)-7-(2-(((3-chloropyridin-2-yl)oxy)methyl)pyrrolidin-1-yl)-6-cyano-1-(1-methyl-1H-pyrazol-4-yl)-4-oxo-1,4-dihydro-1,8-naphthyridine-3-carboxylic acid], the IC50 is ≤ 1000 nM. Same read-out and setting: to `COc1ccc(Cl)c(OC[C@H]2C[C@H]3C[C@H]3N2c2cc3c(cc2F)c(=O)c(C(=O)O)cn3-c2ccc(N3CC(N(C)C)C3)nc2)n1` (racemic) [Compound 234, Rac-7-((1R,3R,5R)-3-(((3-chloro-6-methoxy-pyridin-2-yl)oxy)methyl)-2-azabicyclo [3.1.0]hexan-2-yl)-1-(6-(3-(dimethyl-amino)azetidin-1-yl)pyridin-3-yl)-6-fluoro-4-oxo-1,4-dihydro-quinoline-3-carboxylic acid] belongs ≤ 1000 nM.

The assay is the same for the next values; noted with them: Lin28a-dependent Zcchc11 (Z11) TUTase assay; read-out: Potency Lin28a-dep Z11 IC50.
Turning to `COc1ccc(Cl)c(OC[C@H]2C[C@@H](O)CN2c2cc3c(cc2Cl)c(=O)c(C(=O)O)cn3-c2ccc(N3CC(N(C)C)C3)nc2)n1` [Example 641, 6-chloro-7-((2R,4R)-2-(((3-chloro-6-methoxypyridin-2-yl)oxy)methyl)-4-hydroxypyrrolidin-1-yl)-1-(6-(3-(dimethylamino)azetidin-1-yl)pyridin-3-yl)-4-oxo-1,4-dihydroquinoline-3-carboxylic acid], the IC50 was ≤ 1000 nM. Take `CN(C)C1CN(c2ccc(-n3cc(C(=O)O)c(=O)c4cc(Cl)c(N5CCC[C@@H]5COc5nc(OC6CC6)ccc5Cl)cc43)cn2)C1` [Example 624, (R)-6-chloro-7-(2-(((3-chloro-6-cyclopropoxy-pyridin-2-yl)oxy)methyl)pyrrolidin-1-yl)-1-(6-(3-(dimethylamino)azetidin-1-yl)pyridin-3-yl)-4-oxo-1,4-dihydroquinoline-3-carboxylic acid]: the IC50 is ≤ 1000 nM. Consider `O=C(O)c1cn(-c2cc(F)ccc2F)c2cc(N3CCC[C@@H]3COc3ccccn3)c(F)cc2c1=O` [Example 387, (R)-1-(2,5-difluorophenyl)-6-fluoro-4-oxo-7-(2-((pyridin-2-yloxy)methyl)pyrrolidin-1-yl)-1,4-dihydroquinoline-3-carboxylic acid], for which the IC50 fell in the range of 1000 to 10000 nM. Same read-out and setting: to `CS(=O)(=O)NC1CCC(n2cc(C(=O)O)c(=O)c3cc(F)c(N4CCC[C@@H]4COc4ccccn4)cc32)CC1` (stereo partly drawn) [Example 360, (R)-6-fluoro-1-(4-(methyl-sulfonamido)cyclo-hexyl)-4-oxo-7-(2-((pyridin-2-yloxy)methyl)pyrrolidin-1-yl)-1,4-dihydro-quinoline-3-carboxylic acid] belongs 1000 to 10000 nM; to `O=C(O)c1cn(-c2ccc(O)nc2)c2cc(N3CCC[C@@H]3COc3ncccc3Cl)c(Cl)cc2c1=O` [Example 414, (R)-6-chloro-7-(2-(((3-chloropyridin-2-yl)oxy)methyl)pyrrolidin-1-yl)-1-(6-hydroxy-pyridin-3-yl)-4-oxo-1,4-dihydroquinoline-3-carboxylic acid], ≤ 1000 nM; to `O=C(O)c1cn(-c2ccc3c(c2)CCOC3)c2cc(N3CCC[C@@H]3COc3ncccc3Cl)c(Cl)cc2c1=O` [Example 445, (R)-6-chloro-7-(2-(((3-chloropyridin-2-yl)oxy)methyl)pyrrolidin-1-yl)-1-(isochroman-6-yl)-4-oxo-1,4-dihydroquinoline-3-224 carboxylic acid], ≤ 1000 nM.

As for `Cc1cc2c(=O)c(C(=O)O)cn(-c3ccc(N4CC(N(C)C)C4)nc3)c2cc1N1CCC[C@@H]1COc1ncccc1F` [Example 528, (R)-1-(6-(3-(dimethylamino)azetidin-1-yl)pyridin-3-yl)-7-(2-(((3-fluoropyridin-2-yl)oxy)methyl)pyrrolidin-1-yl)-6-methyl-4-oxo-1,4-dihydroquinoline-3-carboxylic acid], the IC50 was ≤ 1000 nM. On to `CN(C)C1CN(c2ccc(-n3cc(C(=O)O)c(=O)c4cc(Cl)c(N5C6CC6C[C@@H]5COc5ccccn5)cc43)cn2)C1` (stereo partly drawn) [Example 619, 6-chloro-1-(6-(3-(dimethylamino)azetidin-1-yl)pyridin-3-yl)-4-oxo-7-((3R)-3-((pyridin-2-yloxy)methyl)-2-azabicyclo[3.1.0]hexan-2-yl)-1,4-dihydroquinoline-3-carboxylic acid], for which the IC50 is ≤ 1000 nM. `Cc1cccc(-n2cc(C(=O)O)c(=O)c3cc(F)c(N4CCC[C@@H]4COc4ccccn4)cc32)c1C` [Example 392, (R)-1-(2,3-dimethylphenyl)-6-fluoro-4-oxo-7-(2-((pyridin-2-yloxy)methyl)pyrrolidin-1-yl)-1,4-dihydroquinoline-3-carboxylic acid]: the 50% inhibitory concentration (IC50) is ≤ 1000 nM.

The values above are taken from US12662491B2 (Redona Therapeutics, Inc., priority 2020, dated 2026).
